The target of experiment [1] is T1, WRN [UniPro: Q14191 (WRN_HUMAN), N500-C946] (Homo sapiens (Human), UniProt Q14191). Kind of experiment: WRN ATPase assay (ADP-Glo). To be noted: WRN enzymatic activity assay. In kind it is biochemical. A general note: ADP-Glo turns the ADP formed in a reaction into a luminescent signal.
Experiment [2] has as its target T1, WRN [UniPro: Q14191 (WRN_HUMAN), N500-C946]. Nature of the experiment: WRN unwinding assay (FORKF DNA, fluorescence). In kind it is biochemical. To be noted: Table 14.

T1 sequence (Q14191 500-946): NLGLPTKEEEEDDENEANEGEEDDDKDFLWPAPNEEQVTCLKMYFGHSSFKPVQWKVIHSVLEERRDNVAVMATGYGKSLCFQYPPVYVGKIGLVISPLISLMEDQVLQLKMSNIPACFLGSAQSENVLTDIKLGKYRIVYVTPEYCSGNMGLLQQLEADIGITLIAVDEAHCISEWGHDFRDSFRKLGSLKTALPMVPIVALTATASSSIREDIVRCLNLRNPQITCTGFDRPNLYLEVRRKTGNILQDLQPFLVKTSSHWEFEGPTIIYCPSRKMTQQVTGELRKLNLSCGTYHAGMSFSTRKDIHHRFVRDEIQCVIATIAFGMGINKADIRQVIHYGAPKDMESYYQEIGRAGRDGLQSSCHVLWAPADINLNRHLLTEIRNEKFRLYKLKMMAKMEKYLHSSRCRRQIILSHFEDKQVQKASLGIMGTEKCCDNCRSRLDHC

A word on the IC50: it is the concentration that inhibits the measured activity by half. Read a high IC50 as a need for much substance. In the case of `CCc1c(N2CCN(C(=O)c3nnc(Cl)cc3O)CC2)c(=O)n2nc(C3=CCOCC3)nc2n1CC(=O)Nc1ccc(C(F)(F)F)cc1Cl` [Example 83, N-(2-Chloro-4-(trifluoromethyl)phenyl)-2-(6-(4-(6-chloro-4-hydroxypyridazine-3-carbonyl)piperazin-1-yl)-2-(3,6-dihydro-2H-pyran-4-yl)-5-ethyl-7-oxo-[1,2,4]triazolo[1,5-a]pyrimidin-4(7H)-yl)acetamide], the IC50 in experiment [1] and in experiment [2] was below 100 nM throughout.
Turning to `CCc1c(N2CCN(C(=O)c3cnn4cccc4c3O)CC2)c(=O)n2nc(C3=CCOCC3)nc2n1CC(=O)Nc1ccc(C(F)(F)F)cc1Cl` [Example 84, N-(2-Chloro-4-(trifluoromethyl)phenyl)-2-(2-(3,6-dihydro-2H-pyran-4-yl)-5-ethyl-6-(4-(4-hydroxypyrrolo[1,2-b]pyridazine-3-carbonyl)piperazin-1-yl)-7-oxo-[1,2,4]triazolo[1,5-a]pyrimidin-4(7H)-yl)acetamide], the IC50 in experiment [1] and in experiment [2] was below 100 nM in each case.
Regarding `CCc1c(N2CCN(C(=O)c3nn4ccnc4cc3O)CC2)c(=O)n2nc(C3=CCOCC3)nc2n1CC(=O)Nc1ccc(C(F)(F)F)cc1Cl` [Example 85, N-(2-Chloro-4-(trifluoromethyl)phenyl)-2-(2-(3,6-dihydro-2H-pyran-4-yl)-5-ethyl-6-(4-(7-hydroxyimidazo[1,2-b]pyridazine-6-carbonyl)piperazin-1-yl)-7-oxo-[1,2,4]triazolo[1,5-a]pyrimidin-4(7H)-yl)acetamide], the IC50 in experiment [1] and in experiment [2] was below 100 nM each time.
As to `CCc1c(N2CCN(C(=O)c3sc4ncccc4c3O)CC2)c(=O)n2nc(C3=CCOCC3)nc2n1CC(=O)Nc1ccc(C(F)(F)F)cc1Cl` [Example 87, N-(2-Chloro-4-(trifluoromethyl)phenyl)-2-(2-(3,6-dihydro-2H-pyran-4-yl)-5-ethyl-6-(4-(3-hydroxythieno[2,3-b]pyridine-2-carbonyl)piperazin-1-yl)-7-oxo-[1,2,4]triazolo[1,5-a]pyrimidin-4(7H)-yl)acetamide], the IC50 in experiment [1] and in experiment [2] was below 100 nM throughout.
Consider `CCc1c(N2CCN(C(=O)c3cc4c(O)ccnc4o3)CC2)c(=O)n2nc(C3=CCOCC3)nc2n1CC(=O)Nc1ccc(C(F)(F)F)cc1Cl` [Example 88, N-(2-Chloro-4-(trifluoromethyl)phenyl)-2-(2-(3,6-dihydro-2H-pyran-4-yl)-5-ethyl-6-(4-(4-hydroxyfuro[2,3-b]pyridine-2-carbonyl)piperazin-1-yl)-7-oxo-[1,2,4]triazolo[1,5-a]pyrimidin-4(7H)-yl)acetamide], for which the IC50 in experiment [1] and in experiment [2] was below 100 nM throughout.
For the compound `CCc1c(N2CCN(C(=O)C(N)=O)CC2)c(=O)n2nc(C3=CCOCC3)nc2n1CC(=O)Nc1ccc(C(F)(F)F)cc1Cl` [Example 89, 2-(6-(4-(2-Amino-2-oxoacetyl)piperazin-1-yl)-2-(3,6-dihydro-2H-pyran-4-yl)-5-ethyl-7-oxo-[1,2,4]triazolo[1,5-a]pyrimidin-4(7H)-yl)-N-(2-chloro-4-(trifluoromethyl)phenyl)acetamide], the IC50 in experiment [1] and in experiment [2] was below 100 nM throughout.
Regarding `CCc1c(N2CCN(C(=O)c3cccc4cn[nH]c34)CC2)c(=O)n2nc(C3=CCOCC3)nc2n1CC(=O)Nc1ccc(C(F)(F)F)cc1Cl` [Example 90, 2-(6-(4-(1H-Indazole-7-carbonyl)piperazin-1-yl)-2-(3,6-dihydro-2H-pyran-4-yl)-5-ethyl-7-oxo-[1,2,4]triazolo[1,5-a]pyrimidin-4(7H)-yl)-N-(2-chloro-4-(trifluoromethyl)phenyl)acetamide], the IC50 in experiment [1] is below 100 nM; in experiment [2] it was 100 to 1000 nM.
Consider `CCc1c(N2CCN(C(=O)c3cnc4cc(C)cn4c3O)CC2)c(=O)n2nc(C3=CCOCC3)nc2n1CC(=O)Nc1ccc(C(F)(F)F)cc1Cl` [Example 92, N-(2-Chloro-4-(trifluoromethyl)phenyl)-2-(2-(3,6-dihydro-2H-pyran-4-yl)-5-ethyl-6-(4-(4-hydroxy-7-methylpyrrolo[1,2-a]pyrimidine-3-carbonyl)piperazin-1-yl)-7-oxo-[1,2,4]triazolo[1,5-a]pyrimidin-4(7H)-yl)acetamide], for which the IC50 in experiment [1] and in experiment [2] was below 100 nM each time.
With `CCc1c(N2CCN(C(=O)CNC(=O)c3ccccc3)CC2)c(=O)n2nc(C3=CCOCC3)nc2n1CC(=O)Nc1ccc(C(F)(F)F)cc1Cl` [Example 93, N-(2-(4-(4-(2-((2-Chloro-4-(trifluoromethyl)phenyl)amino)-2-oxoethyl)-2-(3,6-dihydro-2H-pyran-4-yl)-5-ethyl-7-oxo-4,7-dihydro-[1,2,4]triazolo[1,5-a]pyrimidin-6-yl)piperazin-1-yl)-2-oxoethyl)benzamide], the IC50 in experiment [1] and in experiment [2] was below 100 nM in each case.
Consider `CCCC(=O)NCC(=O)N1CCN(c2c(CC)n(CC(=O)Nc3ccc(C(F)(F)F)cc3Cl)c3nc(C4=CCOCC4)nn3c2=O)CC1` [Example 94, N-(2-(4-(4-(2-((2-Chloro-4-(trifluoromethyl)phenyl)amino)-2-oxoethyl)-2-(3,6-dihydro-2H-pyran-4-yl)-5-ethyl-7-oxo-4,7-dihydro-[1,2,4]triazolo[1,5-a]pyrimidin-6-yl)piperazin-1-yl)-2-oxoethyl)butyramide], for which the IC50 in experiment [1] and in experiment [2] was below 100 nM in each case.
As for `CCc1c(N2CCN(C(=O)CNC(=O)c3ccccn3)CC2)c(=O)n2nc(C3=CCOCC3)nc2n1CC(=O)Nc1ccc(C(F)(F)F)cc1Cl` [Example 95, N-(2-(4-(4-(2-((2-Chloro-4-(trifluoromethyl)phenyl)amino)-2-oxoethyl)-2-(3,6-dihydro-2H-pyran-4-yl)-5-ethyl-7-oxo-4,7-dihydro-[1,2,4]triazolo[1,5-a]pyrimidin-6-yl)piperazin-1-yl)-2-oxoethyl)picolinamide], the IC50 in experiment [1] and in experiment [2] was below 100 nM each time.
For `CCc1c(N2CCN(C(=O)CNC(=O)c3ccncc3)CC2)c(=O)n2nc(C3=CCOCC3)nc2n1CC(=O)Nc1ccc(C(F)(F)F)cc1Cl` [Example 96, N-(2-(4-(4-(2-((2-Chloro-4-(trifluoromethyl)phenyl)amino)-2-oxoethyl)-2-(3,6-dihydro-2H-pyran-4-yl)-5-ethyl-7-oxo-4,7-dihydro-[1,2,4]triazolo[1,5-a]pyrimidin-6-yl)piperazin-1-yl)-2-oxoethyl)isonicotinamide], the IC50 in experiment [1] and in experiment [2] was below 100 nM throughout.
Consider `CCc1c(N2CCN(C(=O)CNC(=O)c3ccccc3F)CC2)c(=O)n2nc(C3=CCOCC3)nc2n1CC(=O)Nc1ccc(C(F)(F)F)cc1Cl` [Example 97, N-(2-(4-(4-(2-((2-Chloro-4-(trifluoromethyl)phenyl)amino)-2-oxoethyl)-2-(3,6-dihydro-2H-pyran-4-yl)-5-ethyl-7-oxo-4,7-dihydro-[1,2,4]triazolo[1,5-a]pyrimidin-6-yl)piperazin-1-yl)-2-oxoethyl)-2-fluorobenzamide], for which the IC50 in experiment [1] and in experiment [2] was below 100 nM throughout.
Take `CCc1c(N2CCN(C(=O)CNC(=O)c3ccc(F)cc3)CC2)c(=O)n2nc(C3=CCOCC3)nc2n1CC(=O)Nc1ccc(C(F)(F)F)cc1Cl` [Example 98, N-(2-(4-(4-(2-((2-Chloro-4-(trifluoromethyl)phenyl)amino)-2-oxoethyl)-2-(3,6-dihydro-2H-pyran-4-yl)-5-ethyl-7-oxo-4,7-dihydro-[1,2,4]triazolo[1,5-a]pyrimidin-6-yl)piperazin-1-yl)-2-oxoethyl)-4-fluorobenzamide]: the IC50 in experiment [1] and in experiment [2] was below 100 nM in each case.
Consider `CCc1c(N2CCN(C(=O)CNC(=O)c3cccc(F)c3)CC2)c(=O)n2nc(C3=CCOCC3)nc2n1CC(=O)Nc1ccc(C(F)(F)F)cc1Cl` [Example 99, N-(2-(4-(4-(2-((2-Chloro-4-(trifluoromethyl)phenyl)amino)-2-oxoethyl)-2-(3,6-dihydro-2H-pyran-4-yl)-5-ethyl-7-oxo-4,7-dihydro-[1,2,4]triazolo[1,5-a]pyrimidin-6-yl)piperazin-1-yl)-2-oxoethyl)-3-fluorobenzamide], for which the IC50 in experiment [1] and in experiment [2] was below 100 nM throughout.
As to `CCc1c(N2CCN(C(=O)CNC(=O)c3nccs3)CC2)c(=O)n2nc(C3=CCOCC3)nc2n1CC(=O)Nc1ccc(C(F)(F)F)cc1Cl` [Example 100, N-(2-(4-(4-(2-((2-Chloro-4-(trifluoromethyl)phenyl)amino)-2-oxoethyl)-2-(3,6-dihydro-2H-pyran-4-yl)-5-ethyl-7-oxo-4,7-dihydro-[1,2,4]triazolo[1,5-a]pyrimidin-6-yl)piperazin-1-yl)-2-oxoethyl)thiazole-2-carboxamide], the IC50 in experiment [1] and in experiment [2] was below 100 nM throughout.
With `CCc1c(N2CCN(C(=O)CNC(=O)c3ccn[nH]3)CC2)c(=O)n2nc(C3=CCOCC3)nc2n1CC(=O)Nc1ccc(C(F)(F)F)cc1Cl` [Example 101, N-(2-(4-(4-(2-((2-Chloro-4(trifluoromethyl)phenyl)amino)-2-oxoethyl)-2-(3,6-dihydro-2H-pyran-4-yl)-5-ethyl-7-oxo-4,7-dihydro-[1,2,4]triazolo[1,5-a]pyrimidin-6-yl)piperazin-1-yl)-2-oxoethyl)-1H-pyrazole-5-carboxamide], the 50% inhibitory concentration (IC50) in experiment [1] and in experiment [2] was below 100 nM throughout.
On to `CCc1c(N2CCN(C(=O)CNC(=O)c3ccn(C)n3)CC2)c(=O)n2nc(C3=CCOCC3)nc2n1CC(=O)Nc1ccc(C(F)(F)F)cc1Cl` [Example 102, N-(2-(4-(4-(2-((2-Chloro-4-(trifluoromethyl)phenyl)amino)-2-oxoethyl)-2-(3,6-dihydro-2H-pyran-4-yl)-5-ethyl-7-oxo-4,7-dihydro-[1,2,4]triazolo[1,5-a]pyrimidin-6-yl)piperazin-1-yl)-2-oxoethyl)-1-methyl-1H-pyrazole-3-carboxamide], for which the IC50 in experiment [1] and in experiment [2] was below 100 nM throughout.

The record behind these values is patent US20260015358A1, “BICYCLIC DERIVATIVES, COMPOSITIONS AND USES THEREOF” (Danatlas Pharmaceuticals Co., Ltd., priority 2023, published 2026).
